In series [1] the target is T1, recombinant human c-MET kinase enzyme domain (Homo sapiens, UniProt P08581).
T1 construct: Recombinant c-Met kinase domain (amino acids 960-1390); His (N); made in house; host or cells: baculovirus expression system (insect cells; SF21 is named only for the alternative format)
The experiment in a line: c-MET receptor tyrosine kinase Homogeneous Time Resolved Fluorescence assay (HTRF). To be noted: Biological Example 1 and/or Biological Example 2. In kind it is biochemical. The method in brief: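 His-tagged c-Met kinase domain (aa 960-1390, baculovirus) phosphorylated biotinylated poly-Glu-Tyr (37 nM) with 20 μM ATP in HEPES pH 7.4, Mg/Mn, DTT, 1% DMSO, 20 min at ambient temperature, EDTA-stopped. HTRF read (PT66-Eu/streptavidin-XL665, 665/620 nm ratio) after 4 h; IC50 from eight 1:3.16 dilutions.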
(In general: TR-FRET usually uses a lanthanide donor and a delayed reading to cut background.)

Here are results for three compounds from patent US8198456B2, “Dihydropyridine derivatives as useful as protein kinase inhibitors” (Bayer Intellectual Property GmbH, priority 2006, dated 2012).

T1 sequence (P08581 960-1390): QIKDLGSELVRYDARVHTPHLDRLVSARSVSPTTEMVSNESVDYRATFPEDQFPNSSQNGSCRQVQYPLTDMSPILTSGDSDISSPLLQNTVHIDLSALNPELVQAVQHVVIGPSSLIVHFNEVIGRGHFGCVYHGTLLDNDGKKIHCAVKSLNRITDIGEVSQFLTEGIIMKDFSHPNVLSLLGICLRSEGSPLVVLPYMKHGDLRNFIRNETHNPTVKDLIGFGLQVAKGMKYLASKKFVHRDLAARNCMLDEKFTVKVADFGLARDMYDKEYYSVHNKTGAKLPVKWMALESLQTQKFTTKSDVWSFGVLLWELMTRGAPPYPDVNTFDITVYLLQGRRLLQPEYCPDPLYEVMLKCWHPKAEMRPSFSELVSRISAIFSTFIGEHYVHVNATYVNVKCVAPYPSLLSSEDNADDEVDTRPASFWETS

For `CCNc1n[nH]c2ccc(C3C(C#N)=C(C)NC(C)=C3C#N)cc12` [compound 121, 4-[3-(ethylamino)-1H-indazol-5-yl]-1,4-dihydro-2,6-dimethyl-3,5-pyridinedicarbonitrile], the melting point (in general, the temperature of the solid-liquid transition) was 247.6 °C. The IC50 (in general, the concentration that gives 50% inhibition) in series [1] is less than 100 nM.

For the compound `CC1=C(C#N)C(c2cccc(C(=O)Nc3cccc(C)n3)c2)C(C#N)=C(C)N1` [compound 62, 3-(3,5-dicyano-1,4-dihydro-2,6-dimethyl-4-pyridinyl)-N-(6-methyl-2-pyridinyl)-benzamide], in series [1], the IC50 is 500 to 2500 nM.

As to `CC1=C(C#N)C(c2ccc3[nH]nc(NCc4ccc(N(C)CCO)cc4)c3c2)C(C#N)=C(C)N1` [compound 172, 1,4-dihydro-4-[3-[[[4-[(2-hydroxyethyl)methylamino]phenyl]methyl]amino]-H-indazol-5-yl]-2,6-dimethyl-3,5-pyridinedicarbonitrile], the IC50 in series [1] was less than 100 nM.
